Where two headings read alike, the source gives them in different places. Each block holds one molecule with its values, some of them ahead of it.
Columns and labels:
[1] = Long-term solution stability (visual crystallization/precipitation time); assay type: physicochemical; conditions: for time until solution crashes out: solution of 1%
Procedure: (§1) Solutions were prepared by mixing one or more steviol glycoside component in purified water at ambient temperature. Solubility enhancers, preservatives, or ethanol were included only where expressly indicated and, when used, were added to the initial mixture prior to heating and dissolution. The mixtures were premixed and then subsequently heated via heat block or oven. Solutions took approximately one or two minutes to reach the target temperature, and then were maintained at the target temperature at least until complete dissolution of solids. Dissolution of solids was monitored visually during heating. After the heating period, fully dissolved solutions were permitted to cool to room temperature and were monitored for initial precipitation.
Solutions were further monitored for stability over periods of hours, days, weeks, and longer. Multiple techniques were utilized to evaluate stability. […] Solutions were also evaluated by recovering dissolved solids and then calculating percent recovery. If necessary, the solutions were filtered to remove undissolved material to assure that percent recovery reflected only dissolved steviol glycosides.
The rebaudioside M and A blend was further observed hourly for the first several hours, then monitored daily to evaluate long-term stability. Steviol glycoside binary blends in aqueous solvent (1%) were prepared from as an […].
Amounts of rebaudioside M and rebaudioside A in varying ratios were combined with purified water at room temperature and then heated to 85° C. with a heating block to effect dissolution. For example, for batches formulated to provide a concentration of about 10% DS, approximately 25 mg of each of rebaudioside M and rebaudioside A were dissolved in 500 μL of purified water. Samples were monitored until crystallization occurred or for at least 40 days. Solutions that remained clear and free of visible precipitation are identified in the tables below.
Steviol glycoside solutions of rebaudioside M and rebaudioside A were tested to determine if non-aqueous solvent was beneficial or detrimental to solution stability. Ingredients were combined in purified water at room temperature then heated to 85° C. with a heating block to effect dissolution. The solution was allowed to cool to ambient temperature, and then visually monitored for precipitation.

[2] = cited from earlier work
[3] = Initial solubility in aqueous solution (visual dissolution on heating); assay type: physicochemical
Procedure: as §1
Various individual steviol glycosides were tested to evaluate initial solubility in aqueous solution as well as the long-term stability in solution. Ingredients were combined in purified water at room temperature then heated to 85° C. with a heating block to effect dissolution. […]

[4] = Aqueous solubility (background values); assay type: physicochemical; conditions: heating in near boiling water for 2 hours
[5] = 0.49% DS, after dissolution at 85° C.
[6] = conventional formulations, aqueous solution at 25° C., WO 2017/120480 A1

appearance (FIG. 3, bottom) ([1]; about 10% DS, only rebaudioside A): intense precipitation
time until solution crashes out [1]: ≤ 72 h
Molecule: C=C1C[C@@]23CC[C@H]4[C@@](C)(CCC[C@@]4(C)C(=O)O[C@@H]4O[C@H](CO)[C@@H](O)[C@H](O)[C@H]4O)[C@@H]2CC[C@]1(O[C@@H]1O[C@H](CO)[C@@H](O)[C@H](O[C@@H]2O[C@H](CO)[C@@H](O)[C@H](O)[C@H]2O)[C@H]1O[C@@H]1O[C@H](CO)[C@@H](O)[C@H](O)[C@H]1O)C3 [rebaudioside A]
dissolved content in aqueous solution ([2]; purified, in water at 25° C., WO 2012/082587 A2): about 0.8 wt %

Soluble? [3]: Y
Crystallization Time [1, 5]: <1 h
Molecule: C=C1C[C@@]23CC[C@H]4[C@@](C)(CCC[C@@]4(C)C(=O)O[C@@H]4O[C@H](CO)[C@@H](O)[C@H](O[C@@H]5O[C@H](CO)[C@@H](O)[C@H](O)[C@H]5O)[C@H]4O[C@@H]4O[C@@H](C)[C@H](O)[C@@H](O)[C@H]4O)[C@@H]2CC[C@]1(O[C@@H]1O[C@H](CO)[C@@H](O)[C@H](O[C@@H]2O[C@H](CO)[C@@H](O)[C@H](O)[C@H]2O)[C@H]1O[C@@H]1O[C@H](CO)[C@@H](O)[C@H](O)[C@H]1O)C3 [N, rebaudioside N]

Crystallization Time ([1]; 0.47% DS, heated to 85° C.): Immediate
Molecule: rebaudioside B

Soluble? [3]: Y
dissolution ([3]; 1% solution, purified water, heated to 85° C.): failed to dissolve
Crystallization Time ([1]; 0.53% DS, after dissolution at 85° C.): <2 h
Molecule: C=C1C[C@@]23CC[C@H]4[C@@](C)(CCC[C@@]4(C)C(=O)O[C@@H]4O[C@H](CO)[C@@H](O)[C@H](O)[C@H]4O[C@@H]4O[C@@H](C)[C@H](O)[C@@H](O)[C@H]4O)[C@@H]2CC[C@]1(O[C@@H]1O[C@H](CO)[C@@H](O)[C@H](O[C@@H]2O[C@H](CO)[C@@H](O)[C@H](O)[C@H]2O)[C@H]1O[C@@H]1O[C@H](CO)[C@@H](O)[C@H](O)[C@H]1O)C3 [J, rebaudioside J]

dissolution ([3]; 1% DS in water, heated to 85° C. for 20 minutes, cooled to room temperature (FIG. 1)): failed to dissolve
dissolution ([3]; 1% DS in water, heated to 85° C. for 20 minutes, cooled to room temperature (FIG. 1), listed as Reb D): cannot achieve dissolution
Crystallization Time ([1]; 0.48% DS (Reb D), 0.5% DS (Total)): <2 h
Crystallization Time ([1]; 0.48% DS, after dissolution at 85° C.): <2 h
concentration temporarily dissolved [4]: 0.8 wt %
Molecule: C=C1C[C@@]23CC[C@H]4[C@@](C)(CCC[C@@]4(C)C(=O)O[C@@H]4O[C@H](CO)[C@@H](O)[C@H](O)[C@H]4O[C@@H]4O[C@H](CO)[C@@H](O)[C@H](O)[C@H]4O)[C@@H]2CC[C@]1(O[C@@H]1O[C@H](CO)[C@@H](O)[C@H](O[C@@H]2O[C@H](CO)[C@@H](O)[C@H](O)[C@H]2O)[C@H]1O[C@@H]1O[C@H](CO)[C@@H](O)[C@H](O)[C@H]1O)C3 [D, rebaudioside D]
dissolved content in aqueous solution [2, 6]: about 0.05 wt %

Crystallization Time [1, 5]: 336 h
Molecule: C=C1C[C@@]23CC[C@H]4[C@@](C)(CCC[C@@]4(C)C(=O)O[C@@H]4O[C@H](CO)[C@@H](O)[C@H](O)[C@H]4O[C@@H]4O[C@H](CO)[C@@H](O)[C@H](O)[C@H]4O)[C@@H]2CC[C@]1(O[C@@H]1O[C@H](CO)[C@@H](O)[C@H](O)[C@H]1O[C@@H]1O[C@H](CO)[C@@H](O)[C@H](O)[C@H]1O)C3 [E, rebaudioside E]

time until solution crashes out [1]: less than an hour
Molecule: C=C1C[C@@]23CC[C@H]4[C@@](C)(CCC[C@@]4(C)C(=O)O[C@@H]4O[C@H](CO)[C@@H](O)[C@H](O[C@@H]5O[C@H](CO)[C@@H](O)[C@H](O)[C@H]5O)[C@H]4O[C@@H]4O[C@H](CO)[C@@H](O)[C@H](O)[C@H]4O)[C@@H]2CC[C@]1(O[C@@H]1O[C@H](CO)[C@@H](O)[C@H](O[C@@H]2O[C@H](CO)[C@@H](O)[C@H](O)[C@H]2O)[C@H]1O[C@@H]1O[C@H](CO)[C@@H](O)[C@H](O)[C@H]1O)C3 [rebaudioside M]
dissolved content in aqueous solution [2, 6]: about 0.1 wt %
dissolved concentration in aqueous solution ([2]; room temperature, freeze or spray dried, WO '480, stability over time not reported): 0.5 wt %

Soluble? [3]: Y
Crystallization Time ([1]; 0.33% DS, after dissolution at 85° C.): <72 h
Molecule: C=C1C[C@@]23CC[C@H]4[C@@](C)(CCC[C@@]4(C)C(=O)O[C@@H]4O[C@H](CO)[C@@H](O)[C@H](O[C@@H]5O[C@H](CO)[C@@H](O)[C@H](O)[C@H]5O)[C@H]4O[C@@H]4O[C@H](CO)[C@@H](O)[C@H](O)[C@H]4O)[C@@H]2CC[C@]1(O[C@@H]1O[C@H](CO)[C@@H](O)[C@H](O[C@@H]2O[C@H](CO)[C@@H](O)[C@H](O)[C@H]2O)[C@H]1O[C@@H]1O[C@H](CO)[C@@H](O)[C@H](O)[C@H]1O)C3 [M (RM01), rebaudioside M]

— patent US20250194651A1, “STEVIOL GLYCOSIDE CONCENTRATES AND HIGHLY SOLUBLE STEVIOL GLYCOSIDES” (CARGILL, INCORPORATED, priority 2022, published 2025)
